What was measured:
Oryctolagus cuniculus [1] = test: Toxicity in rabbit arteriovenous-shunt thrombosis model assessed as increase in bleeding time compound administered as single bolus dose followed by five continuous infusion dose; format: organism-based; settings: in vivo, iv
Oryctolagus cuniculus [2] = test: Antithrombotic activity in rabbit arteriovenous-shunt thrombosis model assessed as inhibition of clot formation compound administered as single bolus dose followed by five continuous infusion dose; format: functional
Plasma [3] = test: Anticoagulant activity in New Zealand White rabbit plasma assessed as concentration required to double activated partial thromboplastin time; format: functional, Oryctolagus cuniculus
[4] = Binding affinity to New Zealand White rabbit plasma kallikrein assessed as release of p-nitroaniline after 10 to 120 mins by spectrophotometric analysis; format: cell-free, Oryctolagus cuniculus
[5] = Binding affinity to New Zealand White rabbit factor 7a assessed as release of p-nitroaniline after 10 to 120 mins by spectrophotometric analysis; parameters: species or system Oryctolagus cuniculus
Coagulation factor X [6] = target: T1, Coagulation factor X (Oryctolagus cuniculus, UniProt O19045); test: Binding affinity to New Zealand White rabbit factor 10a assessed as release of p-nitroaniline after 10 to 120 mins by spectrophotometric analysis
T1 sequence (O19045 whole entry): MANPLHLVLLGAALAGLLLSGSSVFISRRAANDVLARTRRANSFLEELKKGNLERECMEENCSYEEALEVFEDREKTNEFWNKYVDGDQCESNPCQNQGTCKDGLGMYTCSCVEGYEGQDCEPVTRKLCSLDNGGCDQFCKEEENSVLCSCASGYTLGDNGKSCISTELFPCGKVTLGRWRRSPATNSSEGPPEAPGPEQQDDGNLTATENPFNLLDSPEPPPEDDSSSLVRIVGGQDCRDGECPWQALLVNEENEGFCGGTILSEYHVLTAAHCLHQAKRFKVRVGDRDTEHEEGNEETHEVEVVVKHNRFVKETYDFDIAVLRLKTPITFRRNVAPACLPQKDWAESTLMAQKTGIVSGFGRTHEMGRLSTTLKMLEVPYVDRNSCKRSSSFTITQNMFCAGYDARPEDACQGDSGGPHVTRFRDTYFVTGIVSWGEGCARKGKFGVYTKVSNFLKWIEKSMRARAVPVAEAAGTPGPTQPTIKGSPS

[7] = Binding affinity to New Zealand White rabbit thrombin assessed as release of p-nitroaniline after 10 to 120 mins by spectrophotometric analysis; parameters: species or system Oryctolagus cuniculus
[8] = Binding affinity to New Zealand White rabbit factor 11a assessed as release of p-nitroaniline after 10 to 120 mins by spectrophotometric analysis; parameters: species or system Oryctolagus cuniculus
Plasma [9] = test: Anticoagulant activity in human plasma assessed as concentration required to inhibit double prothrombin time; format: functional
Plasma [10] = test: Anticoagulant activity in human plasma assessed as concentration required to double activated partial thromboplastin time; format: functional
Coagulation factor IX = Coagulation factor IX (Homo sapiens, UniProt P00740); test: Binding affinity to human factor 9a assessed as release of p-nitroaniline after 10 to 120 mins by spectrophotometric analysis
Sequence of Coagulation factor IX (P00740 47-191 limits assumed): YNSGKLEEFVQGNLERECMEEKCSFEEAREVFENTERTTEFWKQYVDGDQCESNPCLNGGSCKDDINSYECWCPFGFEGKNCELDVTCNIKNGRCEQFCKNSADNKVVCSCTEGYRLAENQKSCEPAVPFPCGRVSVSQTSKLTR
Sequence of Coagulation factor IX (P00740 227-461 limits assumed): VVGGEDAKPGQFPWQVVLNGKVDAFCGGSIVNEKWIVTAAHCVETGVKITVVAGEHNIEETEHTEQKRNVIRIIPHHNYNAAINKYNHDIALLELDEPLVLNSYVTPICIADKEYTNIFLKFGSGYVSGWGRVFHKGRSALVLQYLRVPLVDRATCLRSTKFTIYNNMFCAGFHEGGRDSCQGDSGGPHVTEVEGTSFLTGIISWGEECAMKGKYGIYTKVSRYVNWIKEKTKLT

[11] = Binding affinity to human chymotrypsin assessed as release of p-nitroaniline after 10 to 120 mins by spectrophotometric analysis
Prothrombin = Prothrombin (Homo sapiens, UniProt P00734); test: Binding affinity to human thrombin assessed as release of p-nitroaniline after 10 to 120 mins by spectrophotometric analysis
[12] = target: Urokinase-type plasminogen activator (Homo sapiens, UniProt P00749); test: Binding affinity to human urokinase assessed as release of p-nitroaniline after 10 to 120 mins by spectrophotometric analysis
[13] = target: Tissue-type plasminogen activator (Homo sapiens, UniProt P00750); test: Binding affinity to human tPA assessed as release of p-nitroaniline after 10 to 120 mins by spectrophotometric analysis
Sequence of Tissue-type plasminogen activator (P00750 whole entry): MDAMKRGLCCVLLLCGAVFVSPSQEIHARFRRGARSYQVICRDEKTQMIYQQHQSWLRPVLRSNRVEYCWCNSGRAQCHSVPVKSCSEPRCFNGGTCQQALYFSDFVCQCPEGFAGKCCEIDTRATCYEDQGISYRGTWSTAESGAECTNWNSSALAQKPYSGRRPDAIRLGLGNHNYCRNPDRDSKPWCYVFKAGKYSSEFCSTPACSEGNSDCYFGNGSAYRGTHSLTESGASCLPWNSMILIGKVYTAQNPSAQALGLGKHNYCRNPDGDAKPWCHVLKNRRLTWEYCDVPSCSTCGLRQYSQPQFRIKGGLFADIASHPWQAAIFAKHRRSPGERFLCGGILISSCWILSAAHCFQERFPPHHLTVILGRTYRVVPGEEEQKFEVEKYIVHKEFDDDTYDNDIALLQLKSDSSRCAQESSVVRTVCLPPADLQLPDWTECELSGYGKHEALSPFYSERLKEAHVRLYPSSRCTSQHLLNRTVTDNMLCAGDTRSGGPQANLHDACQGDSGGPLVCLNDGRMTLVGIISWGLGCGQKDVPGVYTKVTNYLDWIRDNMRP

Plasminogen = Plasminogen (Homo sapiens, UniProt P00747); test: Binding affinity to human plasmin assessed as release of p-nitroaniline after 10 to 120 mins by spectrophotometric analysis
Sequence of Plasminogen (P00747 97-580 limits assumed): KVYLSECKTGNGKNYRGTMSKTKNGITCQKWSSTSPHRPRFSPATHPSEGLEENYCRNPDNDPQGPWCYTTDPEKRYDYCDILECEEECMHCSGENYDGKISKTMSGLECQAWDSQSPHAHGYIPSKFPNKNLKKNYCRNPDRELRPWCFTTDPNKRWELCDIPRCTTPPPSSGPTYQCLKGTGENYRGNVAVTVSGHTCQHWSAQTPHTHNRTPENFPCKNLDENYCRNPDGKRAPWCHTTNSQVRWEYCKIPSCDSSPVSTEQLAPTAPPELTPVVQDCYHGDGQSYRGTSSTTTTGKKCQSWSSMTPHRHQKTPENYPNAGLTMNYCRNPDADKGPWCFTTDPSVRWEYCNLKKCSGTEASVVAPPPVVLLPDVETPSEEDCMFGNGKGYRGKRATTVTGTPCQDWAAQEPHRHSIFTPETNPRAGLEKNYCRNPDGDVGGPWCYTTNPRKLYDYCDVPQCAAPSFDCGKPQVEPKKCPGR
Sequence of Plasminogen (P00747 581-810 limits assumed): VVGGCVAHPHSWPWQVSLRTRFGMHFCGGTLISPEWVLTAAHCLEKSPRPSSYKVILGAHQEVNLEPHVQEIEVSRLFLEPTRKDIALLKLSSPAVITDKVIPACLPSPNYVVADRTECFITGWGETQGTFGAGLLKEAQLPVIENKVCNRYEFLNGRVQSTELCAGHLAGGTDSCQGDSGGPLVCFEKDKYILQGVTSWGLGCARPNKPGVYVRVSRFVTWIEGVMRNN

Trypsin = Trypsin (Homo sapiens, UniProt P07477+P07478+P35030); test: Binding affinity to human trypsin assessed as release of p-nitroaniline after 10 to 120 mins by spectrophotometric analysis; format: protein assay
[14] = target: Vitamin K-dependent protein C (Homo sapiens, UniProt P04070); test: Binding affinity to human activated protein C assessed as release of p-nitroaniline after 10 to 120 mins by spectrophotometric analysis
Sequence of Vitamin K-dependent protein C (P04070 43-197 limits assumed): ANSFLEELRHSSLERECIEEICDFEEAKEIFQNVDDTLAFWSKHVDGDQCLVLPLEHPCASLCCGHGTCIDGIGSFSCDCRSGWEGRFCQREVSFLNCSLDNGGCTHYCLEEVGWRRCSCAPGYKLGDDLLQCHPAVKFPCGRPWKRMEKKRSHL
Sequence of Vitamin K-dependent protein C (P04070 212-461 limits assumed): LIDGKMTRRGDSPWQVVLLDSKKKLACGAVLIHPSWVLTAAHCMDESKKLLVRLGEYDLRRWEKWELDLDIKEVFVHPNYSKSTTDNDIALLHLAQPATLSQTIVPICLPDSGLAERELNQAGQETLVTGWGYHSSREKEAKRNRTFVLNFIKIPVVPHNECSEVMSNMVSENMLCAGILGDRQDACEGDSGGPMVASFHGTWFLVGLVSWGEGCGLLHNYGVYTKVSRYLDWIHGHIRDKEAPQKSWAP

Plasma kallikrein = Plasma kallikrein (Homo sapiens, UniProt P03952); test: Binding affinity to human plasma kallikrein assessed as release of p-nitroaniline after 10 to 120 mins by spectrophotometric analysis
Sequence of Plasma kallikrein (P03952 20-390 limits assumed): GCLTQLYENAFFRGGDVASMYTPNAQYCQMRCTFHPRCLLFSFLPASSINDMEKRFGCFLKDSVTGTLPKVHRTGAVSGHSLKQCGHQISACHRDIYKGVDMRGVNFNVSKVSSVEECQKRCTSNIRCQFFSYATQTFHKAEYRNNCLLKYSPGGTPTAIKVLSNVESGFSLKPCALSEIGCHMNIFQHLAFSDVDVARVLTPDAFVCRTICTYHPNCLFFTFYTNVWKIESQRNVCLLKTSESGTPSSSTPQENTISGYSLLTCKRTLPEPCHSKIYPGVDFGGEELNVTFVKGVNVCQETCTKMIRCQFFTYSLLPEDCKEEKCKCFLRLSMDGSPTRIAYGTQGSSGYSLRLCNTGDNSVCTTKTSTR
Sequence of Plasma kallikrein (P03952 391-638 limits assumed): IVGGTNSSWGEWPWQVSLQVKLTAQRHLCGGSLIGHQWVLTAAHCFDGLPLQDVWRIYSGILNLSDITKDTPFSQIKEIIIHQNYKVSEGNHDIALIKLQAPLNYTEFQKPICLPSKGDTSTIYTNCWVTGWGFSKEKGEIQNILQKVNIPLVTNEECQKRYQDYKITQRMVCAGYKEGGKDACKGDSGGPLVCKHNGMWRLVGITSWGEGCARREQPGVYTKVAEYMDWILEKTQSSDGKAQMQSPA

Coagulation factor X [15] = target: Coagulation factor X (Homo sapiens, UniProt P00742); test: Binding affinity to human factor 10a assessed as release of p-nitroaniline after 10 to 120 mins by spectrophotometric analysis
Sequence of Coagulation factor X (Homo sapiens, UniProt P00742) (P00742 41-179 limits assumed): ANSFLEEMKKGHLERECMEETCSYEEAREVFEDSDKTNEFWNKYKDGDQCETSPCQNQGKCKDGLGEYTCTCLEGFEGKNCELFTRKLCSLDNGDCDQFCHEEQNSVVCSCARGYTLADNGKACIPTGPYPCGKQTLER
Sequence of Coagulation factor X (Homo sapiens, UniProt P00742) (P00742 235-488 limits assumed): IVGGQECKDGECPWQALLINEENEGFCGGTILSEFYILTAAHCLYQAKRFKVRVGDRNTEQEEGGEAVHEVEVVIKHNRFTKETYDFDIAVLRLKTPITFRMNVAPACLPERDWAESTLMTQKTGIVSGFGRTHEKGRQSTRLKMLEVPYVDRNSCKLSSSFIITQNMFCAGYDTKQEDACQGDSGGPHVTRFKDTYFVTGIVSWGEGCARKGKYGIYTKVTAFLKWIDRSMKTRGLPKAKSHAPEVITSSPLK

Coagulation factor VII = target: T2, Coagulation factor VII (Homo sapiens, UniProt P08709); test: Binding affinity to human factor 7a assessed as release of p-nitroaniline after 10 to 120 mins by spectrophotometric analysis
T2 sequence (P08709 whole entry): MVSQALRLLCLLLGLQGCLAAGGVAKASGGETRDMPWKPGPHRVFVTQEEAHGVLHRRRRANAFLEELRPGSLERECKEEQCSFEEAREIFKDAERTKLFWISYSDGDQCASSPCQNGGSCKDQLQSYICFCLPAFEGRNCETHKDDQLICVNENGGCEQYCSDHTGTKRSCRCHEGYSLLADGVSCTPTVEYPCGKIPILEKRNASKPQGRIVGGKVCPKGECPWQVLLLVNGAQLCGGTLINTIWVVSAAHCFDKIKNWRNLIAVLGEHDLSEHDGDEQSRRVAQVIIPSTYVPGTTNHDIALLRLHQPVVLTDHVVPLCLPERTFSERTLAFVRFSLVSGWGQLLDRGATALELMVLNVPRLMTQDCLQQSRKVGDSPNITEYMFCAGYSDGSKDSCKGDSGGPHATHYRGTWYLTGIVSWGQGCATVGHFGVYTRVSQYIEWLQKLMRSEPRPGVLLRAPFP

Coagulation factor XI = Coagulation factor XI (Homo sapiens, UniProt P03951); test: Binding affinity to human factor 11a assessed as release of p-nitroaniline after 10 to 120 mins by spectrophotometric analysis
Sequence of Coagulation factor XI (P03951 19-387 limits assumed): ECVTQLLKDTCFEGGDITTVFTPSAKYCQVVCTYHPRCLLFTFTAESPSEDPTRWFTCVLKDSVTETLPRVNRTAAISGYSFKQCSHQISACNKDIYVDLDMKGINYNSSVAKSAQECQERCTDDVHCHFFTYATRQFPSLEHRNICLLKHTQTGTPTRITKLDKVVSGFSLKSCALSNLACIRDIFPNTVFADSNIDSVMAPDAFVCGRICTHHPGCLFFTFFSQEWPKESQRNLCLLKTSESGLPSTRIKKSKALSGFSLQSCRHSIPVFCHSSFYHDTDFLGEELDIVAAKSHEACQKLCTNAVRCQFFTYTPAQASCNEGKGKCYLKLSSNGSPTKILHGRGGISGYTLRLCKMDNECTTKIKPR
Sequence of Coagulation factor XI (P03951 388-625 limits assumed): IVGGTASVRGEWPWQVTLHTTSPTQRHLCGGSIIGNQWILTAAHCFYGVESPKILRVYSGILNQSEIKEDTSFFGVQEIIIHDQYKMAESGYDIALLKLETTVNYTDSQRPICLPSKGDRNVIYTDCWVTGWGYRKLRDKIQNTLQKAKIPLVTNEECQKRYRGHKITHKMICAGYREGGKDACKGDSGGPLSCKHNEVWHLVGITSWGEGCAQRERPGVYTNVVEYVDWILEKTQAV

Ki [4]: 4.6 nM
Ki [5]: 200 nM
Ki (Coagulation factor X [6]): 3200 nM
Ki [7]: 7900 nM
Ki [8]: 0.42 nM
Ki (Coagulation factor IX): > 20000 nM
Ki [11]: 14000 nM
Ki (Prothrombin): 12600 nM
Ki [12]: 2100 nM
Ki [13]: 1700 nM
Ki (Plasminogen): 910 nM
Ki (Trypsin): 740 nM
Ki [14]: 73 nM
Ki (Plasma kallikrein): 4.6 nM
Ki (Coagulation factor X [15]): 340 nM
Ki (Coagulation factor VII): 629 nM
Ki (Coagulation factor XI): 0.2 nM
Compound: CC(C)CC(=O)Nc1cc(-c2ccc(C(N)=O)cc2C(=O)O)cc(C2CC(C)(c3ccccc3)c3cc(C(=N)N)ccc3N2)c1 (single isomer, unassigned; enantiomer 2)
Activity (Oryctolagus cuniculus [1]): Non-toxic
ID50 (Oryctolagus cuniculus [2]): 0.95 mg/kg/h
EC (Plasma [3]): 2400 nM
IC (Plasma [9]): >20 µM
EC (Plasma [10]): 2.2 µM
